Data reported in the supplement of paper PMC13380429.

Key:
Conditions in all cases: 72 h
Caco-2 [1] = assay: relative viability EC50 (midpoint between 100% and the lowest measured viability); higher = less toxic
Vero E6 [2] = assay: as above
Caco-2 [3] = assay: cell viability relative to DMSO; higher = less toxic
Vero E6 [4] = assay: as above
HepG2 [5] = assay: as above
Caco-2 [6] = assay: drug sensitivity score (DSS) for viability; higher = more toxic; extreme values may be limits of the assay
Vero E6 [7] = assay: as above
HepG2 [8] = assay: as above
U2OS [9] = assay: relative viability EC50 (midpoint between 100% and the lowest measured viability); higher = less toxic
HepG2 [10] = assay: as above
U2OS [11] = assay: cell viability relative to DMSO; higher = less toxic
Calu-3 [12] = assay: as above
U2OS [13] = assay: drug sensitivity score (DSS) for viability; higher = more toxic; extreme values may be limits of the assay
Calu-3 [14] = assay: as above
Calu-3 [15] = assay: relative viability EC50 (midpoint between 100% and the lowest measured viability); higher = less toxic

| SMILES | relative viability EC50 (Caco-2 [1]) [µM] | relative viability EC50 (Vero E6 [2]) [µM] | cell viability (Caco-2 [3]; 1 nM) [%] | cell viability (Caco-2 [3]; 10 nM) [%] | cell viability (Caco-2 [3]; 100 nM) [%] | cell viability (Caco-2 [3]; 1000 nM) [%] | cell viability (Caco-2 [3]; 10000 nM) [%] | cell viability (Vero E6 [4]; 1 nM) [%] | cell viability (Vero E6 [4]; 10 nM) [%] | cell viability (Vero E6 [4]; 100 nM) [%] | cell viability (Vero E6 [4]; 1000 nM) [%] | cell viability (Vero E6 [4]; 10000 nM) [%] | cell viability (HepG2 [5]; 1 nM) [%] | cell viability (HepG2 [5]; 10 nM) [%] | cell viability (HepG2 [5]; 100 nM) [%] | cell viability (HepG2 [5]; 1000 nM) [%] | cell viability (HepG2 [5]; 10000 nM) [%] | drug sensitivity score (Caco-2 [6]) | drug sensitivity score (Vero E6 [7]) | drug sensitivity score (HepG2 [8]) | relative viability EC50 (U2OS [9]) [µM] | relative viability EC50 (HepG2 [10]) [µM] | cell viability (U2OS [11]; 1 nM) [%] | cell viability (U2OS [11]; 10 nM) [%] | cell viability (U2OS [11]; 100 nM) [%] | cell viability (U2OS [11]; 1000 nM) [%] | cell viability (U2OS [11]; 10000 nM) [%] | cell viability (Calu-3 [12]; 1 nM) [%] | cell viability (Calu-3 [12]; 10 nM) [%] | cell viability (Calu-3 [12]; 100 nM) [%] | cell viability (Calu-3 [12]; 1000 nM) [%] | cell viability (Calu-3 [12]; 10000 nM) [%] | drug sensitivity score (U2OS [13]) | drug sensitivity score (Calu-3 [14]) | relative viability EC50 (Calu-3 [15]) [µM] |
| --- | --- | --- | --- | --- | --- | --- | --- | --- | --- | --- | --- | --- | --- | --- | --- | --- | --- | --- | --- | --- | --- | --- | --- | --- | --- | --- | --- | --- | --- | --- | --- | --- | --- | --- | --- |
| COc1cc2ncnc(Oc3cccc(NC(=O)Nc4cc(C(C)(C)C(F)(F)F)on4)c3)c2cc1OC | > 10 | > 10 | 102 | 94.1 | 97.5 | 93.2 | 93.8 | 100 | 97.1 | 108 | 108 | 88.3 | 114 | 93.9 | 110 | 93.7 | 59.8 | 0 | 0 | 3 |  |  |  |  |  |  |  |  |  |  |  |  |  |  |  |
| COc1ccc(C(=O)N2CCCc3cc(C4=NNC(=O)SC4C)ccc32)cc1OC (stereo not given) |  |  | 95.4 | 94.2 | 89.8 | 83.7 | 71.5 | 103 | 100 | 102 | 83.7 | 67.7 | 83.4 | 80.2 | 95.9 | 90.1 | 81.2 | 3.2 | 3.5 | 0 | > 10 | > 10 | 96.2 | 104 | 103 | 96.8 | 90.2 | 97.5 | 93.4 | 101 | 87.7 | 70.1 | 0 | 2.9 |  |
| COc1cccc(Nc2c(C(N)=O)cnc3c(C)cc(S(=O)(=O)c4cccc(C(=O)N(C)C)c4)cc23)c1 |  |  |  |  |  |  |  |  |  |  |  |  |  |  |  |  |  |  | 0 | 0 |  |  |  |  |  |  |  |  |  |  |  |  | 0 |  |  |
| N#Cc1cc2c(OCC(O)CN3CCN(C(c4ccccc4)c4ccccc4)CC3)cccc2[nH]1 (stereo not given) |  |  | 106 | 92.7 | 112 | 92.9 | 68.3 | 101 | 103 | 95.5 | 98.9 | 53.5 | 83.5 | 96.1 | 96.8 | 101 | 38.9 | 2.5 | 2.5 | 3.2 | > 10 | 3.3 | 96.3 | 101 | 102 | 100 | 92.5 | 105 | 93.4 | 95.2 | 97.8 | 95.7 | 0 | 0 | > 10 |
| O=C(NC[C@H](O)CO)c1ccncc1Nc1ccc(I)cc1F |  |  | 92.8 | 93.2 | 81.7 | 73 | 61.7 | 98.2 | 85.4 | 67.4 | 52 | 52.7 | 102 | 62.9 | 35 | 20.5 | 15.8 | 6.9 | 13.5 | 27.2 | 2.2 | 0.0178 | 94.6 | 94.5 | 91.6 | 91.8 | 29.9 | 96.8 | 83.1 | 67.3 | 51 | 31.9 | 5.2 | 14.8 | 0.104 |
| Cc1cc(Nc2nc(N[C@@H](C)c3ccc(F)cc3)c(C#N)cc2F)n[nH]1 [AZ960] |  | 0.883 | 112 | 109 | 118 | 77.8 | 51.8 | 99.3 | 99.6 | 100 | 65.9 | 40.9 | 111 | 105 | 96.7 | 43.2 | 33.6 | 5.4 | 7.4 | 10.9 | 1.33 | 0.422 | 104 | 101 | 104 | 76.3 | 27.8 | 118 | 103 | 96.1 | 83.9 | 38.9 | 7.4 | 5.8 | 1.51 |
| COc1cc(OC2CCN(C)CC2)ccc1Nc1ncc2c(n1)n(C1CCCC1)c(=O)n2C [AZ3146] | > 10 | 3.1 | 103 | 101 | 104 | 95 | 76.8 | 111 | 104 | 103 | 99.4 | 41.8 | 106 | 97.9 | 102 | 96.1 | 28.8 | 1.5 | 3.2 | 4.5 |  | 2.74 | 100 | 104 | 101 | 92.2 | 57 | 95.5 | 87.4 | 93.6 | 84.4 | 62.4 | 3.5 | 3.8 |  |
| O=C1c2ccccc2-c2c(NCCc3ccccc3)c(=O)[nH]c3cccc1c23 [BRD7389] |  | 1.06 | 103 | 102 | 97.3 | 71.6 | 61.9 | 102 | 102 | 101 | 69.1 | 33.5 | 98.8 | 101 | 99 | 45.7 | 34.8 | 5.3 | 7.7 | 10.1 | 0.795 | 0.525 | 97.2 | 102 | 95.5 | 68.5 | 44.5 | 97.4 | 100 | 97.6 | 83.1 | 72.5 | 6.7 | 2.8 |  |
| CNC(=O)[C@H]1O[C@@H](n2cnc3c(NCc4cccc(I)c4)nc(Cl)nc32)[C@H](O)[C@@H]1O [CF102] |  | > 10 |  |  |  |  |  | 110 | 99.5 | 104 | 98.3 | 102 | 100 | 102 | 108 | 106 | 99.3 |  | 0 | 0 |  | > 10 |  |  |  |  |  | 99.1 | 116 | 93.2 | 102 | 98.3 |  | 0 | > 10 |
| COc1cc(/C=C2\CCCN([C@@H](C)c3ccc(F)cc3)C2=O)ccc1-n1cnc(C)c1 [E-2012] |  | > 10 | 106 | 101 | 94.9 | 98.8 | 72.6 | 93.1 | 104 | 98.7 | 98.8 | 106 | 109 | 97.5 | 100 | 99 | 60.1 | 1.3 | 0 | 2.1 | > 10 |  | 103 | 97.7 | 101 | 104 | 97.4 | 102 | 99.2 | 106 | 104 | 114 | 0 | 0 | > 10 |
| O=C1[C@H](Cc2ccc(O)cc2)N2C(=O)CCN(C(=O)NCc3ccccc3)[C@H]2CN1Cc1cccc2ccccc12 [ICG-001] |  | > 10 | 91.5 | 94.2 | 99.7 | 91 | 68.8 | 90 | 99.2 | 91.3 | 97.2 | 106 | 102 | 105 | 110 | 105 | 43.5 | 2.7 | 0 | 2.7 |  | 3.6 |  |  |  |  |  | 97.4 | 106 | 97.1 | 100 | 53.1 |  | 2.4 |  |
| Cc1sc2c(c1C)C(c1ccc(Cl)cc1)=N[C@@H](CC(=O)OC(C)(C)C)c1nnc(C)n1-2 [JQ1-(+)] |  |  |  |  |  |  |  |  |  |  |  |  |  |  |  |  |  |  | 17.3 | 10 |  |  |  |  |  |  |  |  |  |  |  |  | 9.2 | 6 |  |
| Cc1csc2c(N[C@@H](C)CN3CCN(S(=O)(=O)c4ccc(Cl)c(Cl)c4)CC3)ncnc12 [LPA2-antagonist-1] |  | > 10 | 96.3 | 107 | 95.3 | 80.9 | 64.4 | 95.2 | 97.1 | 102 | 93.2 | 82.5 | 106 | 97.9 | 93.2 | 36.6 | 18.6 | 3.7 | 1.1 | 12.8 |  | 0.451 | 97.6 | 101 | 97.4 | 97 | 58.7 | 90.5 | 104 | 96.9 | 103 | 93.6 | 2.5 | 0 | > 10 |
| COc1ccc(CNC(=O)c2cc(-c3cncc(C)c3)ncc2-c2nccs2)nc1OC [MK-3697] |  | > 10 |  |  |  |  |  | 103 | 104 | 109 | 111 | 92.7 | 99.8 | 91.2 | 94.9 | 98.5 | 105 |  | 0 | 0 | > 10 | > 10 | 97.4 | 103 | 94.7 | 99.3 | 99.1 | 89 | 101 | 83.4 | 92.5 | 99.9 | 0 | 0 | > 10 |
| O=C(O)[C@]1(Cc2cccc(Nc3nccs3)n2)CC[C@@H](Oc2cccc(Cl)c2F)CC1 [MK-5108] |  | > 10 | 95.6 | 100 | 90.2 | 76.2 | 70.7 | 97.3 | 100 | 100 | 94.6 | 79.5 | 111 | 106 | 99.3 | 62.2 | 40.2 | 4.6 | 1.3 | 7.8 |  | 0.787 | 97.9 | 100 | 94.5 | 95.1 | 73.3 | 98.6 | 90.3 | 89.1 | 88 | 76.8 | 1.8 | 2.4 | > 10 |
| O=C(Nc1ccc(OC(F)(F)F)cc1)c1sccc1NCc1ccnc2ccccc12 [OSI-930] |  |  | 107 | 102 | 94.1 | 97.9 | 69.3 |  |  |  |  |  | 103 | 98.5 | 91.3 | 89 | 67 | 1.7 |  | 2.5 | > 10 |  | 97.8 | 101 | 99.8 | 104 | 92.2 | 91.6 | 111 | 93.6 | 112 | 78 | 0 | 0.4 | > 10 |
